Test results taken from US9453038B2, “Glucokinase activator compounds, compositions containing such compounds, and methods of treatment” (Merck Sharp & Dohme Corp., priority 2012, dated 2016).

Target: Recombinant human liver glucokinase (FLAG fusion protein) (Homo sapiens (Human), UniProt P35557)
Test: glucokinase (GK) activation assay, Thio-NADH formation coupled to G6PDH, absorbance at 405 nm
Format: biochemical
Settings: 2.5 mM Glu; for EC50: 30° C.; for Emax: OD value of DMSO control regarded as 100%, read-out: Emax
From the text: The glucokinase activity can, for instance, be determined without directly measuring glucose-6-phosphate by measuring the amount of Thio-NADH generated during the production of phosphogluconolactone from glucose-6-phosphate by a reporter enzyme glucose-6-phosphate dehydrogenase.
To test the exemplified compounds, the following assay was employed. Recombinant human liver glucokinase was expressed as a FLAG fusion protein in E. coli, and purified on ANTIFLAG M2 AFFINITY GEL (Sigma). The assay was carried out at 30° C. in a 96-well plate. In the plate was distributed 69 μl each of assay buffer (25 mM Hepes Buffer: pH=7.2, 2 mM MgCl2, 1 mM ATP, 0.5 mM TNAD, 1 mM dithiothreitol), to which was added 1 μl of a DMSO solution of the compound or DMSO as control. Then, 20 μl of pre-ice-cooled enzyme mixture (FLAG-GK, 20 U/ml G6PDH) was distributed thereto, to which was added 10 μl of 25 mM glucose as substrate to initiate the reaction (final glucose concentration=2.5 mM). After starting the reaction, the absorbance at 405 nm was measured every 30 seconds for 10 minutes to evaluate the compound based on the initial increase for 5 minutes. FLAG-GK was added so that the increase of absorbance after 5 minutes fell between 0.05 to 0.1 in the presence of 1% DMSO.
The OD values of the respective compounds were measured in the respective concentrations, wherein the OD value of DMSO as control is regarded as 100%. From the OD values at the respective concentrations, Emax (%, 2.5 mM Glu) and EC50 (nM, 2.5 mM Glu) were calculated and used as indicators of the GK activation capability of the compounds. According to the above assay, the GK activation capability of the exemplified compounds of the present invention was determined. […] Where different enantiomers of the same compound were tested, two numbers are provided. Where 3 numbers are provided, for example, Ex. #30, data for the racemic form is also shown.

Sequence of Recombinant human liver glucokinase (FLAG fusion protein) (P35557 other isoform, or with tags, fused parts or gaps): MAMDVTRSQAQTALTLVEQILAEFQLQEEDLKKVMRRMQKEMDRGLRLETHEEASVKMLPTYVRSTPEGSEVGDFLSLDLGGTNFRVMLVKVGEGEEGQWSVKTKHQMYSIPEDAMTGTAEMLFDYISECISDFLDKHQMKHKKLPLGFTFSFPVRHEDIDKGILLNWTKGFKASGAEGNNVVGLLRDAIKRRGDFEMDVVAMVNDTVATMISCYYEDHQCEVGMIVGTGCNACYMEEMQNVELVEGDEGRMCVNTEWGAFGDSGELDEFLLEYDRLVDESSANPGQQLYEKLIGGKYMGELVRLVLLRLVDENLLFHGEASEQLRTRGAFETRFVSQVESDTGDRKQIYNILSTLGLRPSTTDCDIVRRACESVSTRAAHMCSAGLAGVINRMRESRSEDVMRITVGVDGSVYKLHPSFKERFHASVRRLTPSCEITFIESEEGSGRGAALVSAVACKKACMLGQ

Row | EC50 | Emax | SMILES
1 | 533 nM | – | CS(=O)(=O)c1ccc(Oc2cc3cc(-c4ccc(CCC(=O)O)cn4)[nH]c3nc2CN2CCCC2=O)cn1 [Example 9, 3-[6-(5-{[6-(METHYLSULFONYL)PYRIDIN-3-YL]OXY}-6-[(2-OXOPYRROLIDIN-1-YL)METHYL]-1H-PYRROLO[2,3-B]PYRIDIN-2-YL)PYRIDIN-3-YL]PROPANOIC ACID]
2 | 66.7 nM | 619% | CN1C(=O)CCC1c1cc2[nH]c(-c3ncc(CCC(=O)O)s3)cc2cc1Oc1ccc(S(C)(=O)=O)cc1 (centres unmarked) [Example 36, 3-(2-(6-(1-methyl-5-oxopyrrolidin-2-yl)-5-(4-(methylsulfonyl)phenoxy)-1H-indol-2-yl)thiazol-5-yl)propanoic acid]
3 | 4.3 nM | 545% | COC(=O)CCc1ccc(Oc2cc3cc(-c4ccccn4)[nH]c3cc2C2CCC(=O)N2C)cc1 (centres unmarked) [Example 26, methyl 3-(4-((6-(1-methyl-5-oxopyrrolidin-2-yl)-2-(pyridin-2-yl)-1H-indol-5-yl)oxy)phenyl)propanoate]
